In patent US11214803B2, “Modulators of YAP1 expression” (Ionis Pharmaceuticals, Inc., priority 2019, dated 2022):
Marks after values point to notes of the source that are not given here. Strand notation (5' to 3'): a small letter for the sugar, then the base; units joined by * are phosphorothioate-linked, units joined directly phosphodiester-linked; [ ] holds rarer units or linkages, { } end groups; capitals alone tell only the bases. k = constrained ethyl (cEt); [5mC] = 5-methylcytosine; d = 2'-deoxy (DNA)

Test system: Yap1 mRNA
Assay: Antisense inhibition of human Yap1 in A-431 cells by cEt gapmers, single dose (Example 2, RTS4814)
Assay type: cell-based
Outline: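 Single-dose knockdown screen of 3-10-3 cEt phosphorothioate gapmers at 2,000 nM added by free uptake to A-431 cells. After roughly 48 h, RNA was isolated and Yap1 transcript measured by RT-qPCR, with results given as % UTC.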

[1] = Table 20, Yap1 mRNA, percent of untreated control, 3-10-3 cEt gapmers targeting SEQ ID NO.: 1 and 2
[2] = Table 6, A-431 cells, 5,000 cells per well, free uptake, 2,000 nM modified oligonucleotide, approx. 48 hours, RTS4814, normalized to RIBOGREEN, Yap1 mRNA relative to untreated control cells
[3] = Yap1 mRNA as percent of untreated control, A-431 cells, 3-10-3 cEt gapmers targeting SEQ ID NO.: 1, and 2, Table 31
[4] = Table 22, Yap1 mRNA as percent of untreated control, 3-10-3 cEt gapmers, single dose
[5] = Table 18, A-431 cells, 5,000 cells per well, free uptake, 2,000 nM modified oligonucleotide, approx. 48 hours, RTS4814, normalized to RIBOGREEN, Yap1 mRNA as percent of untreated control
[6] = Table 33, Yap1 mRNA, percent of untreated control, 3-10-3 cEt gapmers targeting SEQ ID NO.: 1, and 2
[7] = Table 23, Yap1 mRNA as percent of untreated control, 3-10-3 cEt gapmers, single dose
[8] = Table 24, Yap1 mRNA as percent of untreated control, 3-10-3 cEt gapmers targeting SEQ ID NO.: 1, and 2
[9] = Table 19, A-431 cells, 5,000 cells per well, free uptake, 2,000 nM modified oligonucleotide, approx. 48 hours, RTS4814, normalized to RIBOGREEN, Yap1 mRNA as percent of untreated control
[10] = Table 32, Yap1 mRNA, percent of untreated control, 3-10-3 cEt gapmers targeting SEQ ID NO.: 1, and 2
[11] = Table 25, Yap1 mRNA as percent of untreated control, 3-10-3 cEt gapmers targeting SEQ ID NO.: 1, and 2

1075558 (kA*kT*kA*dT*dT*dA*dA*dG*dG*dT*dG*dG*d[5mC]*kT*kT*kA; antisense) [Compound 1075558]
YAP1 (% UTC) [1]: 51 % UTC

716429 (kT*kG*kG*d[5mC]*dA*dT*d[5mC]*d[5mC]*dA*dT*d[5mC]*dA*dT*k[5mC]*k[5mC]*kA; antisense) [Compound 716429]
YAP1 (% UTC) [2]: 28 % UTC

1076337 (antisense kA*kT*kT*dA*dA*dA*d[5mC]*d[5mC]*dA*dG*dG*dG*dA*k[5mC]*kT*kG) [compound 1076337]
YAP1 (% UTC) [3]: 25 % UTC

1076552 (antisense kA*kT*kG*dT*dA*dT*dA*dA*dA*dT*dA*d[5mC]*d[5mC]*kA*kG*kG) [Compound 1076552]
YAP1 (% UTC) [4]: 7 % UTC

1075876 (kG*kT*kA*dT*dT*dT*dA*dT*dG*dA*dT*dG*dA*kT*kT*k[5mC]; antisense) [Compound 1075876]
YAP1 (% UTC) [5]: 6 % UTC

1074513 (kA*kG*kG*dA*dT*dA*d[5mC]*dA*dT*dT*d[5mC]*d[5mC]*dA*k[5mC]*kT*kA; antisense) [compound 1074513]
YAP1 (% UTC) [3]: 47 % UTC

1075059 (antisense kA*kT*kT*dT*dA*d[5mC]*dT*dT*dT*dG*dG*dA*dT*kG*kT*k[5mC]) [compound 1075059]
YAP1 (% UTC) [6]: 11 % UTC

1076329 (kA*kA*kT*dT*dA*dT*dA*d[5mC]*dT*dG*dG*d[5mC]*dT*kA*k[5mC]*kT; antisense) [Compound 1076329]
YAP1 (% UTC) [7]: 14 % UTC

1075091 (kA*kA*kA*d[5mC]*dA*dA*d[5mC]*dG*dA*dA*dT*dG*dA*kT*kT*kG; antisense) [compound 1075091]
YAP1 (% UTC) [6]: 65 % UTC

1075562 (kG*kT*kA*dT*dT*dT*dA*dT*dG*dG*d[5mC]*dA*dA*k[5mC]*kA*kT; antisense) [Compound 1075562]
YAP1 (% UTC) [8]: 15 % UTC

1076485 (antisense kA*kA*kA*d[5mC]*dG*dA*dA*dA*d[5mC]*dG*dG*dG*dA*kA*kA*kT) [Compound 1076485]
YAP1 (% UTC) [9]: 55 % UTC

1074694 (antisense k[5mC]*k[5mC]*k[5mC]*d[5mC]*d[5mC]*d[5mC]*d[5mC]*d[5mC]*d[5mC]*dA*dA*dA*d[5mC]*kT*kT*kT) [Compound 1074694]
YAP1 (% UTC) [1]: 79 % UTC

1074738 (k[5mC]*kT*kT*d[5mC]*dA*dG*dG*dT*d[5mC]*dA*dG*dT*dA*k[5mC]*kA*kG; antisense) [compound 1074738]
YAP1 (% UTC) [10]: 12 % UTC

1076356 (k[5mC]*kA*kT*dA*dA*dT*dT*dG*dG*dA*d[5mC]*dT*dG*kT*k[5mC]*kT; antisense) [Compound 1076356]
YAP1 (% UTC) [5]: 99 % UTC

1074289 (antisense kT*kG*kA*d[5mC]*dT*dG*dA*dT*dT*d[5mC]*dT*d[5mC]*dT*kG*kG*kT) [compound 1074289]
YAP1 (% UTC) [3]: 13 % UTC

1075913 (k[5mC]*k[5mC]*k[5mC]*d[5mC]*dT*dA*dT*dA*d[5mC]*dT*dT*dT*dT*kT*kG*kA; antisense) [Compound 1075913]
YAP1 (% UTC) [7]: 46 % UTC

1076326 (kG*k[5mC]*kT*dA*dA*dT*dA*dA*dT*dG*dG*dA*dA*kG*kA*kG; antisense) [Compound 1076326]
YAP1 (% UTC) [1]: 4 % UTC

1076427 (k[5mC]*kA*kA*dA*dT*dT*dT*dA*d[5mC]*dT*dG*dA*dT*k[5mC]*kT*k[5mC]; antisense) [Compound 1076427]
YAP1 (% UTC) [11]: 3 % UTC

1074342 (antisense k[5mC]*kA*kT*d[5mC]*d[5mC]*d[5mC]*dG*dG*dG*dA*dG*dA*dA*kG*kA*k[5mC]) [Compound 1074342]
YAP1 (% UTC) [1]: 56 % UTC

1075627 (kA*kT*kA*dA*dG*dA*dT*dA*dG*dT*d[5mC]*dG*dG*kT*kT*k[5mC]; antisense) [Compound 1075627]
YAP1 (% UTC) [11]: 19 % UTC

716405 (kT*kG*kT*dT*dA*dA*dG*dG*dA*dA*dA*dG*dG*kA*kT*k[5mC]; antisense) [Compound 716405]
YAP1 (% UTC) [2]: 149 % UTC

1075536 (kT*kT*kA*dA*dT*dT*dA*d[5mC]*d[5mC]*d[5mC]*dA*dA*dG*kG*kA*k[5mC]; antisense) [compound 1075536]
YAP1 (% UTC) (Yap1 mRNA as percent of untreated control, A-431 cells, 3-10-3 cEt gapmers targeting SEQ ID NO.: 1, and 2, Table 30): 55 % UTC

1074322 (antisense kA*kG*kG*dG*d[5mC]*dT*dA*dA*d[5mC]*dT*d[5mC]*d[5mC]*dT*kG*kA*k[5mC]) [compound 1074322]
YAP1 (% UTC) [10]: 94 % UTC

1075845 (kG*kT*kG*dG*dA*dA*dA*dA*dG*dT*dA*dT*dG*kA*kT*k[5mC]; antisense) [Compound 1075845]
YAP1 (% UTC) [9]: 19 % UTC

1074834 (kT*kT*kG*d[5mC]*dG*dA*dG*dG*dA*dT*dA*dA*dA*kA*kT*k[5mC]; antisense) [compound 1074834]
YAP1 (% UTC) [10]: 14 % UTC

1074180 (antisense k[5mC]*k[5mC]*kG*dG*dG*dA*dT*d[5mC]*d[5mC]*dA*dT*dG*dG*k[5mC]*kT*kT) [Compound 1074180]
YAP1 (% UTC) [5]: 86 % UTC

1074117 (antisense kG*k[5mC]*kG*d[5mC]*d[5mC]*dT*dG*dA*dG*dA*dA*d[5mC]*dT*kT*kT*kT) [Compound 1074117]
YAP1 (% UTC) [9]: 87 % UTC

1075782 (kT*kA*kT*dT*dA*dG*dG*dT*dT*dT*d[5mC]*d[5mC]*d[5mC]*kG*kT*kT; antisense) [Compound 1075782]
YAP1 (% UTC) [1]: 10 % UTC

1074536 (antisense kA*kG*kT*dA*dA*dT*dA*dG*d[5mC]*dT*d[5mC]*dT*dT*kT*k[5mC]*kT) [Compound 1074536]
YAP1 (% UTC) [4]: 6 % UTC

1076073 (k[5mC]*kT*kT*dT*dA*dA*dG*dG*dT*d[5mC]*dT*dA*dG*kT*kT*kA; antisense) [Compound 1076073]
YAP1 (% UTC) [7]: 47 % UTC

1076298 (kG*kT*kT*dA*dT*dA*dA*dA*dG*dA*d[5mC]*d[5mC]*d[5mC]*kA*kA*kT; antisense) [Compound 1076298]
YAP1 (% UTC) [8]: 10 % UTC

1074163 (k[5mC]*kA*kG*dG*d[5mC]*dG*dA*dG*d[5mC]*dG*dA*dG*dG*kG*k[5mC]*kT; antisense) [compound 1074163]
YAP1 (% UTC) [6]: 118 % UTC

716577 (kT*k[5mC]*kT*dG*dT*d[5mC]*dA*dG*dT*dT*dA*dT*d[5mC]*k[5mC]*kT*kA; antisense) [Compound 716577]
YAP1 (% UTC) (A-431 cells, 5,000 cells per well, free uptake, 2,000 nM modified oligonucleotide, approx. 48 hours, RTS4814, normalized to RIBOGREEN, Table 4, asterisk (*) = targets amplicon region of primer probe set): 21 % UTC

1075108 (antisense k[5mC]*kT*kA*dA*dA*dA*dA*d[5mC]*dA*dT*dT*dG*dT*kG*kG*k[5mC]) [Compound 1075108]
YAP1 (% UTC) [5]: 67 % UTC

1074438 (kG*kA*k[5mC]*dA*dT*dG*dA*dA*dG*d[5mC]*dA*dT*d[5mC]*kT*kG*kA; antisense) [Compound 1074438]
YAP1 (% UTC) [1]: 1* % UTC

1076554 (antisense kT*kG*kG*dG*dA*dA*dT*dA*dG*dT*dG*dA*dA*kT*kT*kT) [Compound 1076554]
YAP1 (% UTC) [8]: 30 % UTC

1074226 (antisense k[5mC]*kT*kG*dT*d[5mC]*dG*dA*dA*dG*dA*dT*dG*d[5mC]*kT*kG*kA) [compound 1074226]
YAP1 (% UTC) [10]: 10 % UTC
